Assay results from patent publication US11707442B2, “Antibacterial and antifungal compounds” (The General Hospital Corporation, priority 2015, dated 2023).
In brackets after ≈: the same amount, converted by molar mass. Where two headings read alike, the source gives them in different places.

What was measured:
[1] = tested on: Exponential-phase MRSA cells; assay: Killing kinetics assay; format: cell-based, Staphylococcus aureus; conditions: 10×MIC, result in words
Description: Killing kinetics assay. An S. aureus overnight culture was diluted 1:10,000 in 25 ml fresh TSB in a 250 ml flask. In order to obtain exponential-phase cells, the diluted cell suspension was incubated at 37° C., with shaking at 225 rpm for 4 h until the OD600 nm was 0.4 (˜2×10^7 CFU/ml). 0.5 ml of the exponential phase cell culture was added to the wells of a 2 ml deep well assay block (Corning Costar 3960) containing 0.5 ml of pre-warmed TSB with twice the desired concentrations of compounds. The assay block was sealed with a gas-permeable Breathe-Easy membrane and incubated at 37° C. shaking at 225 rpm. At specific times, 50 μl samples were removed, serially diluted and spot-plated onto tryptic soy agar (TSA, BD) plates to enumerate the number of cells. These experiments were conducted in triplicate.
Colony forming unit counts of cells were measured by serial dilution and plating on TSA plates. The data points on the x-axis are below the level of detection (2×10^2 CFU/mL). Results are shown as means±s.d.; n=3.

[2] = tested on: P. aeruginosa; assay: MIC, broth microdilution; format: cell-based, Pseudomonas aeruginosa; conditions: Pseudomonas aeruginosa; P. aeruginosa PA14; read-out: Minimum inhibitory concentration
[3] = tested on: S. aureus; assay: Minimal inhibitory concentration (MIC), broth microdilution; format: cell-based, Staphylococcus aureus
How it was run: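 MIC values against methicillin-resistant Staphylococcus aureus were determined by standard broth microdilution following Clinical and Laboratory Standards Institute guidance (CLSI document M07-A8). Each well held 100 μl of test compound plus bacterial cells in MH broth, with the starting OD600 set to 0.03. Plates were incubated 18 hrs at 35° C. and absorbance was then read at 595 nm.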

[4] = tested on: E. aerogenes ATCC 13048; assay: MIC, broth microdilution; format: cell-based, Enterobacter aerogenes; conditions: Klebsiella aerogenes, ATCC13048; E. aerogenes ATCC 13048; read-out: Minimum inhibitory concentration
How it was run: (§1)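 MIC by CLSI broth microdilution (M07-A8) in MH broth; E. aerogenes, K. pneumoniae and A. baumannii pre-grown in LB, E. faecium in BHI, at 37° C. Inoculum at initial OD600 0.03, incubated 18 hrs at 35° C., growth read as absorbance at 595 nm.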

[5] = tested on: primary human hepatocytes; assay: Hepatotoxicity (WST-1); format: cell-based; conditions: at 32 μg/ml, 24 h
Description: Hepatotoxicity. Cryopreserved primary human hepatocytes were purchased from Cell Resource Core at Massachusetts General Hospital (Boston, Mass., USA). The hepatocytes were cultured in collagen sandwiched configuration in 24-well plates, as described previously (See, e.g., Dunn, J. C., et al. Hepatocyte function and extracellular matrix geometry: long-term culture in a sandwich configuration. FASEB J. 3, 174-177 (1989); Dunn, J. C., et al. Hepatocytes in collagen sandwich: evidence for transcriptional and translational regulation. J. Cell Biol. 116, 1043-1053 (1992); and Sharma, N. S. et al. Metabolic profiling based quantitative evaluation of hepatocellular metabolism in presence of adipocyte derived extracellular matrix. PLoS ONE 6, e20137 (2011)). Briefly, 0.4×10^6 live cells were seeded in 24-well plates coated with rat tail collagen type I. In order for cells to attach onto collagen gel, the 24-well plates were incubated in a humidified 5% CO2 incubator at 37° C. for 4 hours. The cells were washed and then cultured in 0.5 ml standard hepatocyte culture medium consisting of pre-warmed DMEM media supplemented with 10% FBS, 0.5 U/ml insulin, 14 ng/ml glucagon, 20 ng/ml EGF, 7.5 μg/ml hydrocortisone and 200 U/ml penicillin-streptomycin. The cell cultures were incubated in a humidified 5% CO2 incubator at 37° C. At 24 h after seeding, a top layer of collagen gel was deposited on the hepatocytes attached to the bottom collagen layer and incubated for another 24 h, then the hepatocytes were treated with a range of concentrations of retinoids for 24 h. […] WST-1 reduction was measured at absorbance 450 nm. The percent […] relative to that of the no-treatment control was calculated. […]
0.4×10^6 primary human hepatocytes cultured in a collagen gel sandwich system were treated with a range of concentration of the synthetic retinoids for 24 h. Cell viability was calculated based on the absorbance readings at 450 nm at 4 h after adding WST-1 using the following equation: % viability=(Abssample−Absblank)/(Absnon-treated−Absblank)×100. […]

[6] = tested on: E. faecium; assay: MIC, broth microdilution; format: cell-based, Enterococcus faecium; conditions: Enterococcus faecium, read-out: Minimum inhibitory concentration
How it was run: as §1

[7] = tested on: K. pneumonia WGLW2; assay: MIC, broth microdilution; format: cell-based, Klebsiella pneumoniae; conditions: Klebsiella pneumoniae; K. pneumonia WGLW2; read-out: Minimum inhibitory concentration
How it was run: as §1

## O=C(O)/C=C/c1ccc(-c2ccc(O)c(C34CC5CC(CC(C5)C3)C4)c2)cc1 [Adarotene, (2E)-3-(4′-Hydroxy-3′-tricyclo[3.3.1.13,7]dec-1-yl[1,1′-biphenyl]-4-yl)-2-propenoic acid]
[1]
  killing kinetics: fast killing kinetics
[2]
  MIC: > 64 µg/mL
[3]; MRSA MW2, text b656, read-out: MIC
  MIC: 2 µg/mL (≈ 5.34 µM)
[3]; Staphylococcus aureus, MRSA, 28 clinical MRSA isolates, 1 strain, read-out: MIC
  MIC: 4 µg/mL (≈ 10.7 µM)
[3]; Staphylococcus aureus, S. aureus BF1, read-out: Minimum inhibitory concentration
  MIC: 4 µg/mL (≈ 10.7 µM)
[3]; Staphylococcus aureus, S. aureus BF2, read-out: Minimum inhibitory concentration
  MIC: 2 µg/mL (≈ 5.34 µM)
[3]; Staphylococcus aureus, S. aureus BF3, read-out: Minimum inhibitory concentration
  MIC: 2 µg/mL (≈ 5.34 µM)
[3]; Staphylococcus aureus, S. aureus BF4, read-out: Minimum inhibitory concentration
  MIC: 2 µg/mL (≈ 5.34 µM)
[3]; Staphylococcus aureus, S. aureus BF5, read-out: Minimum inhibitory concentration
  MIC: 2 µg/mL (≈ 5.34 µM)
[3]; Staphylococcus aureus, S. aureus BF6, read-out: Minimum inhibitory concentration
  MIC: 2 µg/mL (≈ 5.34 µM)
[3]; Staphylococcus aureus, S. aureus BF7, read-out: Minimum inhibitory concentration
  MIC: 2 µg/mL (≈ 5.34 µM)
[3]; Staphylococcus aureus, S. aureus BF8, read-out: Minimum inhibitory concentration
  MIC: 2 µg/mL (≈ 5.34 µM)
[3]; Staphylococcus aureus, S. aureus BF9, read-out: Minimum inhibitory concentration
  MIC: 2 µg/mL (≈ 5.34 µM)
[3]; Staphylococcus aureus, S. aureus BF10, read-out: Minimum inhibitory concentration
  MIC: 2 µg/mL (≈ 5.34 µM)
[3]; Staphylococcus aureus, S. aureus BF11, read-out: Minimum inhibitory concentration
  MIC: 2 µg/mL (≈ 5.34 µM)
[3]; Staphylococcus aureus, S. aureus JE2 (wild-type), read-out: MIC
  MIC: 2.5 µg/mL (≈ 6.68 µM)
[3]; Staphylococcus aureus, S. aureus MW2, read-out: Minimum inhibitory concentration
  MIC: 2 µg/mL (≈ 5.34 µM)
[3]; Staphylococcus aureus, S. aureus MW2 mutant SP1-8 (graS)
  MIC: 3 µg/mL (≈ 8.01 µM)
[3]; Staphylococcus aureus, S. aureus MW2 mutant SP1-48 (graS, manA)
  MIC: 4 µg/mL (≈ 10.7 µM)
[3]; Staphylococcus aureus, S. aureus MW2 mutant SP1-74 (graS, manA, MW2474)
  MIC: 4 µg/mL (≈ 10.7 µM)
[3]; Staphylococcus aureus, S. aureus MW2 mutant SP1-100 (graS, manA, MW2474)
  MIC: 4 µg/mL (≈ 10.7 µM)
[3]; Staphylococcus aureus, S. aureus MW2 mutant SP2-13 (yjbH)
  MIC: 3 µg/mL (≈ 8.01 µM)
[3]; Staphylococcus aureus, S. aureus MW2 mutant SP2-52 (yjbH, dltB)
  MIC: 3 µg/mL (≈ 8.01 µM)
[3]; Staphylococcus aureus, S. aureus MW2 mutant SP2-59 (yjbH, dltB, manA)
  MIC: 4 µg/mL (≈ 10.7 µM)
[3]; Staphylococcus aureus, S. aureus MW2 mutant SP2-65 (yjbH, dltB, manA, MW1685)
  MIC: 4 µg/mL (≈ 10.7 µM)
[3]; Staphylococcus aureus, S. aureus MW2 mutant SP2-100 (yjbH dltB, manA, MW1685)
  MIC: 4 µg/mL (≈ 10.7 µM)
[3]; Staphylococcus aureus, S. aureus MW2 serial passage culture SP1-1 (no mutated gene)
  MIC: 2 µg/mL (≈ 5.34 µM)
[3]; Staphylococcus aureus, S. aureus MW2 serial passage culture SP2-1 (no mutated gene)
  MIC: 2 µg/mL (≈ 5.34 µM)
[3]; Staphylococcus aureus, S. aureus NE896 (JE2 yjbH::ϕNΣ)
  MIC: 4 µg/mL (≈ 10.7 µM)
[3]; Staphylococcus aureus, S. aureus NE1645 (JE2 manA::ϕNΣ)
  MIC: 4 µg/mL (≈ 10.7 µM)
[3]; Staphylococcus aureus, S. aureus NE1756 (JE2 graS::ϕNΣ)
  MIC: 4 µg/mL (≈ 10.7 µM)
[3]; Staphylococcus aureus, S. aureus VRS1, read-out: Minimum inhibitory concentration
  MIC: 1 µg/mL (≈ 2.67 µM)
[3]; Staphylococcus aureus, methicillin resistant S. aureus (MRSA) strain MW2, read-out: MIC
  MIC: 2 µg/mL (≈ 5.34 µM)
[4]
  MIC: > 64 µg/mL
[5]
  toxicity to primary human hepatocytes: did not cause significant toxicity
[6]; E. faecium C68
  MIC: 4 µg/mL (≈ 10.7 µM)
[6]; E. faecium D14
  MIC: 4 µg/mL (≈ 10.7 µM)
[6]; E. faecium D24
  MIC: 2 µg/mL (≈ 5.34 µM)
[6]; E. faecium D25
  MIC: 4 µg/mL (≈ 10.7 µM)
[6]; E. faecium D29
  MIC: 2 µg/mL (≈ 5.34 µM)
[6]; E. faecium E007
  MIC: 4 µg/mL (≈ 10.7 µM)
[6]; E. faecium WB213
  MIC: 2 µg/mL (≈ 5.34 µM)
[6]; E. faecium WC176
  MIC: 4 µg/mL (≈ 10.7 µM)
[7]
  MIC: > 64 µg/mL
